Assay results taken from patent publication US12128047B2, “TLR7 agonist and pharmaceutical combination thereof for treating lung cancer” (CHIA TAI TIANQING PHARMACEUTICAL GROUP CO., LTD., priority 2018, dated 2024).

Test system: LLC (Lewis Lung Cancer) tumor
Test: Antitumor experiment in LLC mouse model (subcutaneous xenograft LLC tumor)
Assay type: in vivo, C57BL/6 mice
Conditions: i.g.; for TV (mm^3) on day 0 Mean ± SD: day 0 (grouping, before dosing from day 1); for TGI (%): from tumor weight on day 15 vs control group
Experimental: In Example 1, the TLR7 agonist was
[drawing 58] and anlotinib was anlotinib dihydrochloride.
LLC (Lewis Lung Cancer) Mice: subcutaneously grafted tumor cells of lung cancer (concentration: 2×10^6/mL×0.2 mL/mouse) were inoculated into C57BL/6 mice at the right side armpit (the site to be inoculated was shaved before inoculating) in a sterile environment, and passaged using a block insertion method. The C57BL/6 mice were female and 16-18 g in weight, and the breeding environment was SPF level. The diameter of the C57BL/6 xenograft tumor was measured using a vernier caliper, and the animals were randomly divided into five groups when the tumors grew to 100-300 mm^3: • i. Control group (blank control); • ii. Monotherapy group: anlotinib 5 mg/kg/d (positive control), with normal saline as a vehicle; • iii. Monotherapy group: TLR7 agonist 20 mg/kg, t.i.w., with ethanol/Tween 80 (v:v=1:1) as a vehicle; • iv. Monotherapy group: anlotinib 1 mg/kg/d, with normal saline as a vehicle; and • v. Combination therapy group: TLR7 agonist 20 mg/kg, t.i.w., and anlotinib 1 mg/kg/d.
The mice in the control group and monotherapy groups were administered in a volume of 10 mL/kg, and the mice in the combination therapy group were administered with two drugs simultaneously, each in a volume of 10 mL/kg. Weights and diameter of the tumor were measured every three days, and the behavior of mice was observed daily.
Mice were divided into groups on day 0, with 12 in the control group and 6 in each of the remaining groups. The drugs were administered intragastrically (i.g.) from day 1. The treatment was discontinued on day 12. During the experiment, the tumor volume was measured on days 0, 3, 6, 9, 12 and 15, and the tumors were removed and weighed on day 15, i.e., at the end of experiment.
The tumor volume and the tumor growth inhibition were calculated using the following formulae: Tumor volume (TV)=(L×W^2)/2. Tumor growth inhibition (TGI)=(1−tumor weight in the treatment group/tumor weight in the control group)×100%.

| SMILES | TV (mm^3) on day 0 Mean ± SD (TLR7 agonist 20 mg/kg, t.i.w.) | TV (mm^3) on day 12 Mean ± SD (TLR7 agonist 20 mg/kg, t.i.w.) | TV (mm^3) on day 15 Mean ± SD (TLR7 agonist 20 mg/kg, t.i.w.) | TGI (%) (TLR7 agonist 20 mg/kg, t.i.w.) | growth of LLC tumor (result in words) (TLR7 agonist alone, 20 mg/kg, t.i.w., summary of Table 1) | TV (mm^3) on day 0 Mean ± SD (anlotinib 1 mg/kg/d × 11 d) | TV (mm^3) on day 12 Mean ± SD (anlotinib 1 mg/kg/d × 11 d) | TV (mm^3) on day 15 Mean ± SD (anlotinib 1 mg/kg/d × 11 d) | TGI (%) (anlotinib 1 mg/kg/d × 11 d) | TV (mm^3) on day 0 Mean ± SD (anlotinib 5 mg/kg/d × 11 d, female C57BL/6 mice with LLC tumor) | TV (mm^3) on day 12 Mean ± SD (anlotinib 5 mg/kg/d × 11 d) | TV (mm^3) on day 15 Mean ± SD (anlotinib 5 mg/kg/d × 11 d) | TGI (%) (anlotinib 5 mg/kg/d × 11 d) |
| --- | --- | --- | --- | --- | --- | --- | --- | --- | --- | --- | --- | --- | --- |
| CCCCOc1nc(N)c2[nH]cc(Cc3ccc(CN4CCCC4)cc3)c2n1 [TLR7 agonist] | 212.98 ± 47.17 mm^3 | 2353.68 ± 663.83 mm^3 | 3257.62 ± 577.45 mm^3 | 30.1% | can inhibit the growth of LLC tumor |  |  |  |  |  |  |  |  |
| COc1cc2c(Oc3ccc4[nH]c(C)cc4c3F)ccnc2cc1OCC1(N)CC1 [Anlotinib, 1-[[[4-(4-fluoro-2-methyl-1H-indol-5-yl)oxy-6-methoxyquinolin-7-yl]oxy]methyl]cyclopropylamine] |  |  |  |  |  | 213.25 ± 39.34 mm^3 | 2697.21 ± 747.99 mm^3 | 4114.08 ± 1213.40 mm^3 | 13.5% | 213.47 ± 38.16 mm^3 | 1393.38 ± 532.59 mm^3 | 1811.75 ± 736.45 mm^3 | 63.4% |
